Each structure is given as a SMILES string. Where a name gives a salt, the structure may show the parent alone. Bounds are passed on as bounds.

The melting point is the temperature, or range, at which the solid turns liquid.

Turning to `Nc1ncc(-c2cc(N3CCOCC3)nc(-n3c(C(F)F)nc4ccccc43)n2)cn1` [Example 58, 2-[2-(difluoromethyl)-1H-benzimidazol-1-yl]-6-(4-morpholinyl)-4,5′-bipyrimidine-2′-amine], the melting point lay in the range of 281 to 285 °C.
As for `COc1cc(N)cc2c1nc(C(F)F)n2-c1nc(-c2cn[nH]c2)nc(N2CCOCC2)n1` (as salt: methanesulfonate) [Example 66, 2-(Difluoromethyl)-4-methoxy-1-[4-(4-morpholinyl)-6-(1H-pyrazol-4-yl)-1,3,5-triazin-2-yl]-1H-benzimidazol-6-ylamine], the figure is above 300 °C.
As for `COc1cc(N)cc2c1nc(C(F)F)n2-c1nc(N2CCOCC2)nc(-n2cccn2)n1` (as salt: methanesulfonate) [Example 64, 2-(Difluoromethyl)-4-methoxy-1-[4-(4-morpholinyl)-6-(1H-pyrazol-1-yl)-1,3,5-triazin-2-yl]-1H-benzimidazol-6-ylamine], the figure is above 300 °C; as for `FC(F)c1nc2ccccc2n1-c1nc(Nc2cncnc2)nc(N2CCOCC2)n1` (as salt: methanesulfonate) [Example 35, 4-[2-(difluoromethyl)-1H-benzimidazol-1-yl]-6-(4-morpholinyl)-N-(5-pyrimidinyl)-1,3,5-triazin-2-amine], 163 to 166 °C; as for `COc1cccc2c1nc(C(F)F)n2-c1nc(N2CCOCC2)nc2c1ncn2-c1cccnc1` [Example 61, 6-[2-(Difluoromethyl)-4-methoxy-1H-benzimidazol-1-yl]-2-(4-morpholinyl)-9-(3-pyridinyl)-9H-purine], 206 to 209 °C.
As for `COc1cc(N)cc2c1nc(C(F)F)n2-c1nc(-c2cccnc2)cc(N2CCOCC2)n1` (as salt: methanesulfonate) [Example 68, 2-(Difluoromethyl)-4-methoxy-1-[4-(4-morpholinyl)-6-(3-pyridinyl)-2-pyrimidinyl]-1H-benzimidazol-6-ylamine], the figure is 246 °C (dec.).
Consider `COc1cccc2c1nc(C(F)F)n2-c1nc(N2CCOCC2)nc(-n2ccnc2)n1` [Example 67, 2-(Difluoromethyl)-1-[4-(1H-imidazol-1-yl)-6-(4-morpholinyl)-1,3,5-triazin-2-yl]-4-methoxy-1H-benzimidazole], for which the melting point lay within 272 to 275 °C.
In turn, `COc1cccc2c1nc(C(F)F)n2-c1nc(N2CCOCC2)c2ncn(-c3cccnc3)c2n1` [Example 59, 2-[2-(difluoromethyl)-4-methoxy-1H-benzimidazol-1-yl]-6-(4-morpholinyl)-9-(3-pyridinyl)-9H-purine] registered a melting point of 229 to 231 °C.
Then `COc1cccc2c1nc(C(F)F)n2-c1nc(Nc2cccnc2)nc(N2CCOCC2)n1` (as salt: methanesulfonate) [Example 2, 4-[2-(difluoromethyl)-4-methoxy-1H-benzimidazol-1-yl]-6-(4-morpholinyl)-N-(3-pyridinyl)-1,3,5-triazin-2-amine], with 279 to 282 °C.
Take `COc1cccc2c1nc(C(F)F)n2-c1nc(N2CCOCC2)nc2c1ncn2-c1cncnc1` [Example 62, 6-[2-(Difluoromethyl)-4-methoxy-1H-benzimidazol-1-yl]-2-(4-morpholinyl)-9-(5-pyrimidinyl)-9H-purine]: the melting point fell in the range of 238 to 240 °C.
Regarding `COc1cc(N)cc2c1nc(C(F)F)n2-c1nc(-c2ccn(C)n2)nc(N2CCOCC2)n1` (as salt: methanesulfonate) [Example 65, 2-(Difluoromethyl)-4-methoxy-1-[4-(1-methyl-1H-pyrazol-3-yl)-6-(4-morpholinyl)-1,3,5-triazin-2-yl]-1H-benzimidazol-6-ylamine], the melting point is above 300 °C.
As for `COc1ccc(-c2cc(N3CCOCC3)nc(-n3c(C(F)F)nc4ccccc43)n2)cn1` [Example 53], the figure is 224 to 226 °C.
